Laboratory results reported in PubChem BioAssay (NCI).
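Five compound concentrations were applied to cells in 96-well plates for 48 hours; endpoints were derived by simple linear interpolation of the resulting dose-response curve. TGI: total growth inhibition.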

Legend:
Test in all cases: NCI-60 cell line screen, 48 h
[1] = system: SK-OV-3 ovarian
[2] = system: SNB-19 CNS
[3] = system: CCRF-CEM leukemia
[4] = system: RPMI-8226 leukemia
[5] = system: RXF 393 renal
[6] = system: NCI-H226 lung
[7] = system: SK-MEL-5 melanoma
[8] = system: HL-60(TB) leukemia
[9] = system: MOLT-4 leukemia
[10] = system: KM12 colon
[11] = system: OVCAR-5 ovarian
[12] = system: SN12C renal
[13] = system: SW-620 colon
[14] = system: HT29 colon
[15] = system: PC-3 prostate
[16] = system: LOX IMVI melanoma
[17] = system: CAKI-1 renal
[18] = system: OVCAR-4 ovarian
[19] = system: UACC-62 melanoma
[20] = system: COLO 205 colon
[21] = system: TK-10 renal
[22] = system: SF-539 CNS
[23] = system: SK-MEL-2 melanoma
[24] = system: SK-MEL-28 melanoma
[25] = system: NCI/ADR-RES ovarian
[26] = system: MDA-N
[27] = system: HCC-2998 colon
[28] = system: HCT-15 colon
[29] = system: OVCAR-8 ovarian
[30] = system: OVCAR-3 ovarian
[31] = system: ACHN renal
[32] = system: K-562 leukemia
[33] = system: IGROV1 ovarian
[34] = system: SF-295 CNS
[35] = system: M14 melanoma
[36] = system: DU-145 prostate
[37] = system: SR leukemia
[38] = system: NCI-H23 lung
[39] = system: BT-549 breast
[40] = system: HOP-92 NSCLC
[41] = system: HCT-116 colon
[42] = system: UO-31 renal
[43] = system: A498 renal
[44] = system: MDA-MB-435
[45] = system: HOP-62 NSCLC
[46] = system: MDA-MB-231 breast
[47] = system: A549 NSCLC
[48] = system: UACC-257 melanoma
[49] = system: U251 CNS
[50] = system: EKVX NSCLC
[51] = system: T-47D breast
[52] = system: NCI-H460 lung
[53] = system: MCF7 breast
[54] = system: 786-0 renal
[55] = system: MALME-3M melanoma
[56] = system: SF-268 CNS
[57] = system: NCI-H522 lung
[58] = system: SNB-75 CNS
[59] = system: HS 578T breast

N=C(c1ccc2ccccc2c1)c1ccccc1Cc1ccccc1
TGI [1]: > 100 µM | TGI [2]: > 100 µM | TGI [3]: 82.8 µM | TGI [4]: > 100 µM | TGI [5]: 34.4 µM | TGI [6]: 98.9 µM | TGI [7]: > 100 µM | TGI [8]: 55.1 µM | TGI [9]: 67.8 µM | TGI [10]: > 100 µM | TGI [11]: > 100 µM | TGI [12]: > 100 µM | TGI [13]: > 100 µM | TGI [14]: > 100 µM | TGI [15]: > 100 µM | TGI [16]: > 100 µM | TGI [17]: > 100 µM | TGI [18]: > 100 µM | TGI [19]: > 100 µM | TGI [20]: > 100 µM | TGI [21]: > 100 µM | TGI [22]: > 100 µM | TGI [23]: 49.6 µM | TGI [24]: > 100 µM | TGI [25]: > 100 µM | TGI [26]: > 100 µM | TGI [27]: > 100 µM | TGI [28]: > 100 µM | TGI [29]: > 100 µM | TGI [30]: 57.3 µM | TGI [31]: > 100 µM | TGI [32]: > 100 µM | TGI [33]: > 100 µM | TGI [34]: > 100 µM | TGI [35]: > 100 µM | TGI [36]: 96.6 µM | TGI [37]: > 100 µM | TGI [38]: > 100 µM | TGI [39]: > 100 µM | TGI [40]: > 100 µM | TGI [41]: > 100 µM | TGI [42]: > 100 µM | TGI [43]: > 100 µM | TGI [44]: 80.7 µM | TGI [45]: > 100 µM | TGI [46]: > 100 µM | TGI [47]: > 100 µM | TGI [48]: > 100 µM | TGI [49]: > 100 µM | TGI [50]: > 100 µM | TGI [51]: 55.7 µM | TGI [52]: > 100 µM | TGI [53]: > 100 µM | TGI [54]: > 100 µM

COC(=O)c1sc2ncc3c(c2c1N)CCCCCC3
TGI [1]: > 100 µM | TGI [55]: > 100 µM | TGI [2]: > 100 µM | TGI [3]: > 100 µM | TGI [4]: > 100 µM | TGI [56]: > 100 µM | TGI [5]: > 100 µM | TGI [6]: > 100 µM | TGI [7]: > 100 µM | TGI [9]: > 100 µM | TGI [10]: > 100 µM | TGI [11]: > 100 µM | TGI [12]: > 100 µM | TGI [13]: > 100 µM | TGI [14]: > 100 µM | TGI [15]: > 100 µM | TGI [57]: > 100 µM | TGI [16]: > 100 µM | TGI [17]: > 100 µM | TGI [18]: > 100 µM | TGI [19]: > 100 µM | TGI [20]: > 100 µM | TGI [21]: > 100 µM | TGI [22]: > 100 µM | TGI [23]: > 100 µM | TGI [24]: > 100 µM | TGI [25]: > 100 µM | TGI [26]: > 100 µM | TGI [27]: > 100 µM | TGI [28]: > 100 µM | TGI [29]: > 100 µM | TGI [30]: > 100 µM | TGI [31]: > 100 µM | TGI [32]: > 100 µM | TGI [33]: > 100 µM | TGI [34]: > 100 µM | TGI [35]: > 100 µM | TGI [36]: > 100 µM | TGI [37]: > 100 µM | TGI [38]: > 100 µM | TGI [39]: > 100 µM | TGI [40]: > 100 µM | TGI [41]: > 100 µM | TGI [42]: > 100 µM | TGI [43]: > 100 µM | TGI [44]: > 100 µM | TGI [58]: > 100 µM | TGI [45]: > 100 µM | TGI [46]: > 100 µM | TGI [47]: > 100 µM | TGI [48]: > 100 µM | TGI [49]: > 100 µM | TGI [50]: > 100 µM | TGI [51]: > 100 µM | TGI [52]: > 100 µM | TGI [53]: > 100 µM | TGI [54]: > 100 µM

O=S1CCS(=O)CCS(=O)CC1 (stereo not given)
TGI [1]: > 100 µM | TGI [2]: > 100 µM | TGI [3]: > 100 µM | TGI [56]: > 100 µM | TGI [7]: > 100 µM | TGI [8]: > 100 µM | TGI [9]: > 100 µM | TGI [10]: > 100 µM | TGI [11]: > 100 µM | TGI [12]: > 100 µM | TGI [13]: > 100 µM | TGI [14]: > 100 µM | TGI [15]: > 100 µM | TGI [57]: > 100 µM | TGI [16]: > 100 µM | TGI [18]: > 100 µM | TGI [19]: > 100 µM | TGI [20]: > 100 µM | TGI [21]: > 100 µM | TGI [22]: > 100 µM | TGI [24]: > 100 µM | TGI [25]: > 100 µM | TGI [26]: > 100 µM | TGI [27]: > 100 µM | TGI [28]: > 100 µM | TGI [29]: > 100 µM | TGI [30]: > 100 µM | TGI [32]: > 100 µM | TGI [33]: > 100 µM | TGI [34]: > 100 µM | TGI [35]: > 100 µM | TGI [36]: > 100 µM | TGI [37]: > 100 µM | TGI [38]: > 100 µM | TGI [39]: > 100 µM | TGI [40]: > 100 µM | TGI [41]: > 100 µM | TGI [42]: > 100 µM | TGI [44]: > 100 µM | TGI [58]: > 100 µM | TGI [45]: > 100 µM | TGI [46]: > 100 µM | TGI [47]: > 100 µM | TGI [48]: > 100 µM | TGI [49]: > 100 µM | TGI [50]: > 100 µM | TGI [51]: > 100 µM | TGI [52]: > 100 µM | TGI [53]: > 100 µM | TGI [54]: > 100 µM

CC(=O)N1OC(C)CC1Nc1ccc(Br)cc1 (stereo not given)
TGI [1]: > 100 µM | TGI [55]: > 100 µM | TGI [2]: > 100 µM | TGI [3]: > 100 µM | TGI [56]: > 100 µM | TGI [5]: > 100 µM | TGI [6]: > 100 µM | TGI [7]: > 100 µM | TGI [8]: > 100 µM | TGI [9]: > 100 µM | TGI [10]: > 100 µM | TGI [11]: > 100 µM | TGI [12]: > 100 µM | TGI [13]: > 100 µM | TGI [14]: > 100 µM | TGI [15]: > 100 µM | TGI [19]: > 100 µM | TGI [21]: > 100 µM | TGI [22]: > 100 µM | TGI [23]: > 100 µM | TGI [25]: > 100 µM | TGI [26]: > 100 µM | TGI [27]: 22.4 µM | TGI [28]: > 100 µM | TGI [29]: > 100 µM | TGI [30]: > 100 µM | TGI [31]: > 100 µM | TGI [32]: > 100 µM | TGI [33]: > 100 µM | TGI [34]: > 100 µM | TGI [35]: > 100 µM | TGI [36]: > 100 µM | TGI [59]: > 100 µM | TGI [37]: > 100 µM | TGI [38]: > 100 µM | TGI [39]: > 100 µM | TGI [40]: > 100 µM | TGI [41]: > 100 µM | TGI [42]: > 100 µM | TGI [43]: > 100 µM | TGI [44]: > 100 µM | TGI [45]: 6.13 µM | TGI [47]: > 100 µM | TGI [49]: > 100 µM | TGI [50]: > 100 µM | TGI [51]: > 100 µM | TGI [52]: > 100 µM | TGI [53]: > 100 µM | TGI [54]: > 100 µM
